# Measured values: paper PMC11995724, “Antibiotic target discovery by integrated phenotypic and activity-based profiling of electrophilic fragments” (Cell chemical biology, 2025)
# Structures can show the parent of a compound that is named as a salt.
# Assay: in vitro
# Conditions: human, hek293t cells
row,Compound,"viability at 48 h, 25 µM [%]"
1,"Cc1ccc(-n2c(C)cc(C=C(C#N)C(=O)N3CCCCC3)c2C)cc1 [9-O21, 3-[2,5-dimethyl-1-(4-methylphenyl)-1H-pyrrol-3-yl]-2-(piperidine-1-carbonyl)prop-2-enenitrile]",87.8
2,"CC(Cl)C(=O)N1C[C@@H]2CCC[C@@]2(c2nc(-c3cnccn3)no2)C1 (mixture of isomers) [7-C03, rac-1-[(3aR,6aR)-3a-[3-(pyrazin-2-yl)-1,2,4-oxadiazol-5-yl]-octahydrocyclopenta[c]pyrrol-2-yl]-2-chloropropan-1-one]",113
3,"CN(C(=O)CCl)C(c1ccccc1)c1ccccc1 [5-H06, 2-chloro-N-(diphenylmethyl)-N-methylacetamide]",0.0655
4,"CC(Cl)C(=O)N1CCCC(n2ncc(N(C)C(C)C)cc2=O)C1 (stereo not drawn) [6-H09, 2-[1-(2-chloropropanoyl)piperidin-3-yl]-5-[methyl(propan-2-yl)amino]-2,3-dihydropyridazin-3-one]",97.3
5,"C=CC(=O)Nc1cccc(-c2nc(COC)no2)c1C [1-J08, N-{3-[3-(methoxymethyl)-1,2,4-oxadiazol-5-yl]-2-methylphenyl}prop-2-enamide]",79
6,"CC(Cl)C(=O)N1Cc2cnn(C)c2C1 (stereo not drawn) [7-K09, 2-chloro-1-{1-methyl-1H,4H,5H,6H-pyrrolo[3,4-c]pyrazol-5-yl}propan-1-one]",87
7,"O=C(CCl)Nc1c(F)c(F)c(F)c(F)c1F [4-L08, 2-chloro-N-(2,3,4,5,6-pentafluorophenyl)acetamide]",1.92
8,"COc1cc(C=C(C#N)C(=O)Nc2nccs2)cc(OC)c1 [9-J03, 2-cyano-3-(3,5-dimethoxyphenyl)-N-(1,3-thiazol-2-yl)prop-2-enamide]",104
9,"N#Cc1ccccc1NC(=O)CCl [5-P04, 2-chloro-N-(2-cyanophenyl)acetamide]",0.525
10,"CCN(Cc1cccc(C)c1)C(=O)CCl [5-J16, 2-chloro-N-ethyl-N-[(3-methylphenyl)methyl]acetamide]",1.39
11,"CC(C)c1cc(O)nc(N2CCC(NC(=O)CCl)C2)n1 (stereo not drawn) [4-D13, 2-chloro-N-{1-[4-hydroxy-6-(propan-2-yl)pyrimidin-2-yl]pyrrolidin-3-yl}acetamide]",2.02
12,"CC(C)C(=O)Nc1ccc(C(=O)CCl)cc1 [10-D04, N-[4-(2-chloroacetyl)phenyl]-2-methylpropanamide]",30.8
13,"CC(=O)c1ccc(NC(=O)CCl)cc1 [4-G07, N-(4-acetylphenyl)-2-chloroacetamide]",0.0514
14,"COc1ccc(NC(=O)CCl)cc1S(=O)(=O)N1CCOCC1 [4-D15, 2-chloro-N-[4-methoxy-3-(morpholine-4-sulfonyl)phenyl]acetamide]",0.627
15,"O=C(CCl)Nc1ccc(Oc2cccc(Cl)c2)cc1 [6-C18, 2-chloro-N-[4-(3-chlorophenoxy)phenyl]acetamide]",0.765
16,"O=C(CCl)NCC1(c2ccccc2)CC1 [5-E15, 2-chloro-N-[(1-phenylcyclopropyl)methyl]acetamide]",3.61
17,"O=C(CCl)Nc1ccc(S(=O)(=O)N2CCCCC2)cc1 [4-H06, 2-chloro-N-[4-(piperidine-1-sulfonyl)phenyl]acetamide]",0.963
18,"CC1CN(Cc2ccccc2)CC(C)N(C(=O)C(C)Cl)C1 (stereo not drawn) [5-B21, 1-(4-benzyl-2,6-dimethyl-1,4-diazepan-1-yl)-2-chloropropan-1-one]",122
19,"Cc1nn(C)c(C)c1C=C(C#N)C(=O)Nc1ccc2c(c1)OCCO2 [9-D03, 2-cyano-N-(2,3-dihydro-1,4-benzodioxin-6-yl)-3-(1,3,5-trimethyl-1H-pyrazol-4-yl)prop-2-enamide]",112
20,"C=CC(=O)N1CCC(C(=O)N[C@@H]2C[C@H]2c2ccc(Cl)c(F)c2)CC1 [3-B14, N-[(1R,2S)-2-(4-chloro-3-fluorophenyl)cyclopropyl]-1-(prop-2-enoyl)piperidine-4-carboxamide]",78.3
21,"C=CC(=O)NCc1ccnc(-n2cncn2)c1 [3-B18, N-{[2-(1H-1,2,4-triazol-1-yl)pyridin-4-yl]methyl}prop-2-enamide]",92.7
22,"Nc1c(C(=O)CCl)c(=O)[nH]c(=O)n1C1CC1 [10-P06, 6-amino-5-(2-chloroacetyl)-1-cyclopropyl-1,2,3,4-tetrahydropyrimidine-2,4-dione]",111
23,"COc1ccc(CN2CCN(C(=O)CCl)CC2)cc1 [5-A15, 2-chloro-1-{4-[(4-methoxyphenyl)methyl]piperazin-1-yl}ethan-1-one hydrochloride]",-0.117
24,"C=CC(=O)N1CCC(n2ccnn2)CC1 [3-K09, 1-[4-(1H-1,2,3-triazol-1-yl)piperidin-1-yl]prop-2-en-1-one]",65.2
25,"CNC(=O)c1cc(C(=O)CCl)cn1C [10-G10, 4-(2-chloroacetyl)-N,1-dimethyl-1H-pyrrole-2-carboxamide]",1.73
26,"O=C(CCl)NC(=O)Nc1ccccc1 [4-I17, 3-(2-chloroacetyl)-1-phenylurea]",64
27,"O=C(CCl)Cc1cccc(F)c1 [10-C11, 1-chloro-3-(3-fluorophenyl)propan-2-one]",38.4

row,Compound,"viability at 48 h, 25 µM [%]"
1,"C=CC(=O)N(C)Cc1ccn(CC)n1 [1-L16, N-[(1-ethyl-1H-pyrazol-3-yl)methyl]-N-methylprop-2-enamide]",75.2
2,"N#CC(=Cc1cccs1)C(=O)NCc1ccco1 [9-L08, 2-cyano-N-[(furan-2-yl)methyl]-3-(thiophen-2-yl)prop-2-enamide]",110
3,"Cc1cc(C(C)(C)C)cc(C)c1CCNC(=O)CCl [4-A16, N-[2-(4-tert-butyl-2,6-dimethylphenyl)ethyl]-2-chloroacetamide]",0.58
4,"C=CC(=O)N1CCC(C(=O)NCC(C)c2ncc(C)s2)CC1 (stereo not drawn) [3-P10, N-[2-(5-methyl-1,3-thiazol-2-yl)propyl]-1-(prop-2-enoyl)piperidine-4-carboxamide]",61.4
5,"CC(Cl)C(=O)Nc1ncc(C(F)(F)F)cc1Cl (stereo not drawn) [5-L22, 2-chloro-N-[3-chloro-5-(trifluoromethyl)pyridin-2-yl]propanamide]",105
6,"C=CC(=O)NC1CN(C(C)=O)C1 [1-N22, N-(1-acetylazetidin-3-yl)prop-2-enamide]",73.1
7,"C=CC(=O)NCc1cnc(-c2ccc(C(F)(F)F)cc2)s1 [1-C13, N-({2-[4-(trifluoromethyl)phenyl]-1,3-thiazol-5-yl}methyl)prop-2-enamide]",75.8
8,"CC(Cl)C(=O)NCC1COc2ccccc2O1 (stereo not drawn) [4-F13, 2-chloro-N-[(2,3-dihydro-1,4-benzodioxin-2-yl)methyl]propanamide]",91.4
9,"CC(Cl)C(=O)Nc1ccc(Cl)c(S(=O)(=O)N(C)C)c1 (stereo not drawn) [5-G21, 2-chloro-N-[4-chloro-3-(dimethylsulfamoyl)phenyl]propanamide]",78.5
10,"Cc1cc(C(=O)O)ccc1N1C(=O)C=CC1=O [10-G22, 4-(2,5-dioxo-2,5-dihydro-1H-pyrrol-1-yl)-3-methylbenzoic acid]",107
11,"Cn1ccc(C(=O)CCl)c1 [10-D08, 2-chloro-1-(1-methyl-1H-pyrrol-3-yl)ethan-1-one]",1.8
12,"O=C(CN1CCN(C(=O)CCl)CC1)Nc1cccc(F)c1 [5-P19, 2-[4-(2-chloroacetyl)piperazin-1-yl]-N-(3-fluorophenyl)acetamide hydrochloride]",1.84
13,"C=CC(=O)NC(Cn1cncn1)c1ccccc1 (stereo not drawn) [3-F17, N-[1-phenyl-2-(1H-1,2,4-triazol-1-yl)ethyl]prop-2-enamide]",71.9
14,"COCCNC(=O)C(C#N)=Cc1c(Cl)cccc1Cl [8-O13, 2-cyano-3-(2,6-dichlorophenyl)-N-(2-methoxyethyl)prop-2-enamide]",55.9
15,"CCN(C(=O)C(C)Cl)C1CCCCC1 (stereo not drawn) [5-I19, 2-chloro-N-cyclohexyl-N-ethylpropanamide]",134
16,"CCOc1ccccc1NC(=O)C(C#N)=Cc1ccc2c(c1)OCO2 [9-P05, 3-(1,3-dioxaindan-5-yl)-2-cyano-N-(2-ethoxyphenyl)prop-2-enamide]",136
17,"CC(Cl)C(=O)NCc1noc2ccccc12 (stereo not drawn) [7-I14, N-[(1,2-benzoxazol-3-yl)methyl]-2-chloropropanamide]",77.8
18,"CC(=O)NCCc1ccc(C(=O)CCl)s1 [10-P03, N-{2-[5-(2-chloroacetyl)thiophen-2-yl]ethyl}acetamide]",64.9
19,"C=CCNC(=O)C(C#N)=Cc1cc(C)n(-c2ccc(C)cc2)c1C [8-C17, 2-cyano-3-[2,5-dimethyl-1-(4-methylphenyl)-1H-pyrrol-3-yl]-N-(prop-2-en-1-yl)prop-2-enamide]",60.7
20,"COc1ccc(OC)c(C(C)NC(=O)CCl)c1 (stereo not drawn) [4-M19, 2-chloro-N-[1-(2,5-dimethoxyphenyl)ethyl]acetamide]",1.13
21,"C=CCNC(=O)C(C#N)=Cc1ccccc1OC [9-H05, 2-cyano-3-(2-methoxyphenyl)-N-(prop-2-en-1-yl)prop-2-enamide]",114
22,"CC(Cl)C(=O)NC1c2cc(F)ccc2CC1C (stereo not drawn) [7-E16, 2-chloro-N-(6-fluoro-2-methyl-2,3-dihydro-1H-inden-1-yl)propanamide]",74.7
23,"CC(Cl)C(=O)N[C@@H]1CCc2c(C#N)cccc21 (stereo partly drawn) [6-P14, 2-chloro-N-[(1R)-4-cyano-2,3-dihydro-1H-inden-1-yl]propanamide]",114
24,"COc1ccc(N2C(=O)C=CC2=O)c(OC)c1 [10-J15, 1-(2,4-dimethoxyphenyl)-2,5-dihydro-1H-pyrrole-2,5-dione]",109
25,"CC(C)c1ccc(CC(=O)CCl)cc1 [10-I17, 1-chloro-3-[4-(propan-2-yl)phenyl]propan-2-one]",73.5
26,"O=C(CCl)Nc1cccc(CN2CCSCC2)c1 [5-J14, 2-chloro-N-{3-[(thiomorpholin-4-yl)methyl]phenyl}acetamide hydrochloride]",1.12
27,"C=CC(=O)N1CCC(O)(C(F)(F)C(N)=O)C1 (stereo not drawn) [2-C16, 2,2-difluoro-2-[3-hydroxy-1-(prop-2-enoyl)pyrrolidin-3-yl]acetamide]",98.2
